Test results reported in patent US20070190188A1, “Controlling Toxicity of Aminoquinoline Compounds” (The University of Mississippi, priority 2005, published 2007).

Tests used:
human erythrocytes = assay: In vitro methemoglobin formation, human erythrocytes, control without microsomes; format: cell-based
[1] = system: pooled human liver microsomes; assay: In vitro formation of methemoglobinemic metabolites with pooled human liver microsomes and human erythrocytes; format: cell-based
CYP 1A2 = target: T1, CYP 1A2 (Homo sapiens, UniProt P05177); assay: Methemoglobinemic metabolite formation with Baculosomes, CYP 1A2; format: cell-based; conditions: mean ± S.D. of four
T1 construct: purchased; host or cells: insect cells infected with recombinant baculovirus
T1 sequence (P05177 2-516 limits assumed): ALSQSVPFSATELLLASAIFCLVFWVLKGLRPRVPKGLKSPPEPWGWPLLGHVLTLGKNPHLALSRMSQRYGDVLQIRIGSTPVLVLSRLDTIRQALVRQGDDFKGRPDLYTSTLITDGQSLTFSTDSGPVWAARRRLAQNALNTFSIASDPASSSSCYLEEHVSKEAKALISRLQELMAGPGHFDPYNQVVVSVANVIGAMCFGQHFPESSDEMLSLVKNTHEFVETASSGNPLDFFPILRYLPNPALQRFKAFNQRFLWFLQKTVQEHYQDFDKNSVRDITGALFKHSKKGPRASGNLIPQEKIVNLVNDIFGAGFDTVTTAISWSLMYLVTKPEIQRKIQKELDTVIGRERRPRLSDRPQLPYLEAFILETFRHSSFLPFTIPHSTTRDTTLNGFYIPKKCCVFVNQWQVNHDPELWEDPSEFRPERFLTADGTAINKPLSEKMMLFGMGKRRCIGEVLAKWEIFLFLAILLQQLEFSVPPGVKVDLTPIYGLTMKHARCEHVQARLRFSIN

CYP 2D6 = target: T2, CYP 2D6 (Homo sapiens, UniProt P10635); assay: Methemoglobinemic metabolite formation with Baculosomes, CYP 2D6; format: cell-based; conditions: mean ± S.D. of four
T2 construct: purchased; host or cells: insect cells infected with recombinant baculovirus

CYP 3A4 = target: T3, CYP 3A4 (Homo sapiens, UniProt P08684); assay: Methemoglobinemic metabolite formation with Baculosomes, CYP 3A4; format: cell-based
T3 construct: purchased; host or cells: insect cells infected with recombinant baculovirus

CPY 2B6 = target: T4, CPY 2B6 (Homo sapiens, UniProt P20813); assay: Methemoglobinemic metabolite formation with Baculosomes, CYP 2B6; format: cell-based; conditions: mean ± S.D. of four
T4 construct: purchased; host or cells: insect cells infected with recombinant baculovirus
T4 sequence (P20813 1-491): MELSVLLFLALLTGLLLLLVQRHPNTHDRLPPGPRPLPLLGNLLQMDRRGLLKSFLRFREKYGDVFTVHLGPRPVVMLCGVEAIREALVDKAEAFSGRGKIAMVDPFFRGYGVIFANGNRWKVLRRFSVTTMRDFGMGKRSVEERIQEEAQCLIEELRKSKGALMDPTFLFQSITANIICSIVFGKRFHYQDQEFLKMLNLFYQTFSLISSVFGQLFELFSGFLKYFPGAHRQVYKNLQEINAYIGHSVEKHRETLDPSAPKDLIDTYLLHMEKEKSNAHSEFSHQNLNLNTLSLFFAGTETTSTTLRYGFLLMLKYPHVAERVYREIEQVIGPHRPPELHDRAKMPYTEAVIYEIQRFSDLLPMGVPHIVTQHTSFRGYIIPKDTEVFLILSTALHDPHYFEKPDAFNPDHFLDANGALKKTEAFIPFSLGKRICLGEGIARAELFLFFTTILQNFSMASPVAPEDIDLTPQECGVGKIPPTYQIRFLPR

CYP 2E1 = target: T5, CYP 2E1 (Homo sapiens, UniProt P05181); assay: Methemoglobinemic metabolite formation with Baculosomes, CYP 2E1; format: cell-based; conditions: mean ± S.D. of four
T5 construct: purchased; host or cells: insect cells infected with recombinant baculovirus

CYP 2A6 = target: T6, CYP 2A6 (Homo sapiens, UniProt P11509); assay: Methemoglobinemic metabolite formation with Baculosomes, CYP 2A6; format: cell-based; conditions: mean ± S.D. of four
T6 construct: purchased; host or cells: insect cells infected with recombinant baculovirus
T6 sequence (P11509 1-494): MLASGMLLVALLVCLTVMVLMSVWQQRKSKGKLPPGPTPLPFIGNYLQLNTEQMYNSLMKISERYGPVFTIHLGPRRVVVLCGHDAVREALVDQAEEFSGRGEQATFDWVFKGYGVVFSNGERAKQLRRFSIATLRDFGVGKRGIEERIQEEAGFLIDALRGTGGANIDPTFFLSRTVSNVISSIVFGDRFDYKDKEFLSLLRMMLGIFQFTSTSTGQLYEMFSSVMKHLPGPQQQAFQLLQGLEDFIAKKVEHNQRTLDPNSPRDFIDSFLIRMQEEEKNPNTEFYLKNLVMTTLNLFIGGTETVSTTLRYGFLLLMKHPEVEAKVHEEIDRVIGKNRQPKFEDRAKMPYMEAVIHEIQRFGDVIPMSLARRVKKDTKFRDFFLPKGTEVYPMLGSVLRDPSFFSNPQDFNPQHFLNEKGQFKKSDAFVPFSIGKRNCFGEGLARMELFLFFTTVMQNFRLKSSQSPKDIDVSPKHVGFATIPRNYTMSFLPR

CYP 2C9 = target: T7, CYP 2C9 (Homo sapiens, UniProt P11712); assay: Methemoglobinemic metabolite formation with Baculosomes, CYP 2C9; format: cell-based; conditions: mean ± S.D. of four
T7 construct: purchased; host or cells: insect cells infected with recombinant baculovirus

[2] = system: individual human liver microsomes (HLM)
Experimental: In one aspect of the present invention, an in vitro assay is developed for evaluation of biotransformation reactions leading to generation of methemoglobinemic metabolites of 8-aminoquinolines. This method uses simultaneous incubation of a test compound with the hepatic microsomes or Baculosomes® (microsomes prepared from insect cells infected with recombinant baculovirus containing a cDNA insert for a specific human P450 isozyme and NADPH-P450 reductase) and human erythrocytes followed by determination of methemoglobin formation. This allows the unstable metabolites generated in situ to react with the human erythrocytes.
For Correlation analysis six different lots of individual human liver microsomes (HLM) were obtained from BD biosciences (www.gentest.com ) with good variations in CYP3A4 activity (Testosterone 6β-hydroxylase activity ranging from 700-12,000 pmol/mg protein). […] Donor information, genotypes, immunoquantitation was provided along with the characterization table, with different cytochrome P450 assays conducted with NADPH regenerating system, MgCl2 and 0.1M potassium phosphate buffer.

T3 sequence (P08684 2-503 limits assumed): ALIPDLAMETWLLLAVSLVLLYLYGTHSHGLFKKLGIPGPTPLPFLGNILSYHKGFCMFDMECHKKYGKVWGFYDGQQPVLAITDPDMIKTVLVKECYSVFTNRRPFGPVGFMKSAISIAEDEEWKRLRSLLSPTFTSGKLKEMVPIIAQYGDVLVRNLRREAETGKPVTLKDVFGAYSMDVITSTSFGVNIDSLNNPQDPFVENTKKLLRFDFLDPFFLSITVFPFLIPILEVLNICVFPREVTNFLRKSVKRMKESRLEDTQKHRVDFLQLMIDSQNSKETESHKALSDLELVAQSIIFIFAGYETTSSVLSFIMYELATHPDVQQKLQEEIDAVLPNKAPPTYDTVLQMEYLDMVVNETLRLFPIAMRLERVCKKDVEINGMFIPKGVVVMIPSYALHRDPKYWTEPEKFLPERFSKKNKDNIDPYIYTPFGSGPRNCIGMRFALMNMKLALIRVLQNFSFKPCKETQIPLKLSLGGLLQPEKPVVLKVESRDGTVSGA
T5 sequence (P05181 whole entry): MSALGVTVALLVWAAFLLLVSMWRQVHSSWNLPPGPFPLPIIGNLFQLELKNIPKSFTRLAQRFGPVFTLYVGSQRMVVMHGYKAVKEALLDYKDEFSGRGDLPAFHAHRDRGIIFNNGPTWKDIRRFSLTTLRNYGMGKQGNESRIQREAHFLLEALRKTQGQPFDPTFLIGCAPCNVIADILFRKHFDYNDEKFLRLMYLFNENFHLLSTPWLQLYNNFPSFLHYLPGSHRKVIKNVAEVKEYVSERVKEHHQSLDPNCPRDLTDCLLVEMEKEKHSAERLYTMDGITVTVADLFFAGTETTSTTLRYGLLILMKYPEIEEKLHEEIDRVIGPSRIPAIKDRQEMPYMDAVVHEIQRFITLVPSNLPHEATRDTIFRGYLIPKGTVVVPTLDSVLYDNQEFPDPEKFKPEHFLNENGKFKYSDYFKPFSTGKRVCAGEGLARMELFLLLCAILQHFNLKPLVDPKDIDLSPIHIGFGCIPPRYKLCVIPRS
T2 sequence (P10635 whole entry): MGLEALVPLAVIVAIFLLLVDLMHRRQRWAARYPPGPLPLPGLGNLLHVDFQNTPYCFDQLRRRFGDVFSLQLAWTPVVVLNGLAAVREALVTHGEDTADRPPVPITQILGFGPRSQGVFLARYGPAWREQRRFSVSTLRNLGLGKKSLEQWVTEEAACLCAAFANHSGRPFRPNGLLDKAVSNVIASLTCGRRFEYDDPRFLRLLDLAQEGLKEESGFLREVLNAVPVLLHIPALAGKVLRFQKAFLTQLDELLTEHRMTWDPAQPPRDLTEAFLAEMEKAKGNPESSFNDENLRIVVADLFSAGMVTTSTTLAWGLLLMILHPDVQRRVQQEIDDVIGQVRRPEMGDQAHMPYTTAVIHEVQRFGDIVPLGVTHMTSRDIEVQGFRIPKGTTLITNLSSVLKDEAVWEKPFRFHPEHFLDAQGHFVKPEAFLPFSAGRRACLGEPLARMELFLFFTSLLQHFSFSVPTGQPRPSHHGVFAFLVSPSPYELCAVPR
T7 sequence (P11712 whole entry): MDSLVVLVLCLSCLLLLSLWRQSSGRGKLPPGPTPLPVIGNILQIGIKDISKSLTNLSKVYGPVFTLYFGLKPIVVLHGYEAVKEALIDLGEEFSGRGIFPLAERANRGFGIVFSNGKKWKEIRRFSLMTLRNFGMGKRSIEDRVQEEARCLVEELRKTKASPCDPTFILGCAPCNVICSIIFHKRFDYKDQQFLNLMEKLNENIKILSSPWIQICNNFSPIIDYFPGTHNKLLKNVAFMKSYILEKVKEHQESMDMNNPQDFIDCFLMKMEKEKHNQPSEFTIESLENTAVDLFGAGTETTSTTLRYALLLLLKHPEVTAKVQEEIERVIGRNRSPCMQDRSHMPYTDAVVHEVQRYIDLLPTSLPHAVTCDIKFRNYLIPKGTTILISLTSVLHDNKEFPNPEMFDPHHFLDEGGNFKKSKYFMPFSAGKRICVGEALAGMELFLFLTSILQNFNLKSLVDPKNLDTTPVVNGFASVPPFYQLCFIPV

## COc1cc(N[C@H](C)CCCN)c2nccc(C)c2c1Oc1ccc(Cl)c(Cl)c1 [NPC1161B]
Human erythrocytes; no Baculosomes, mean ± S.D. of four
  % methemoglobin formed, Supersomes None: 0.980 ± 0.493%
Human erythrocytes; no microsomes, drug 100 μM, Mean ± S.D. of four observations
  % methemoglobin formation, Control: 0.980 ± 0.439%
[1]; FIGS. 1 and 2, Table 1
  methemoglobin toxicity compared with primaquine and NPC 1161A: significantly reduced methemoglobin toxicity
[1]; drug 100 μM, microsomes equivalent to 25 pmoles cytochrome P450, Mean ± S.D. of four
  % methemoglobin formation, Pooled Human liver Microsomes: 7.455 ± 0.879%
[1]; pooled human Liver Microsomes, 8-aminoquinoline with Azithromycin
  formation of methemoglobenemic metabolites, Azithromycin: 7.565 ± 1.276
[1]; pooled human Liver Microsomes, 8-aminoquinoline with Erythromycin
  formation of methemoglobenemic metabolites, Erythromycin: 0
[1]; pooled human Liver Microsomes, no macrolide
  formation of methemoglobenemic metabolites, Microsomes: 7.697 ± 1.392
[1]; pooled human liver microsomes, FIG. 7 and 8
  methemoglobin toxicity with macrolide antibiotics troleandomycin and erythromycin: almost completely abolished
CYP 1A2
  % methemoglobin formed, CYP 1A2: 0.00%
CYP 2D6
  % methemoglobin formed, CYP 2D6: 5.380 ± 1.402%
CYP 3A4; 3A4 Baculosomes, 8-aminoquinoline 100 μM with Cimetidine 100 μM
  % methemoglobin formed, Cimetidine: 8.567 ± 0.600%
CYP 3A4; 3A4 Baculosomes, 8-aminoquinoline 100 μM with Erythromycin 100 μM
  % methemoglobin formed, Erythromycin: 11.655 ± 1.818%
CYP 3A4; 3A4 Baculosomes, 8-aminoquinoline 100 μM with Ketoconazole 100 μM
  % methemoglobin formed, Ketoconazole: 9.615 ± 1.552%
CYP 3A4; 3A4 Baculosomes, 8-aminoquinoline 100 μM with Troleandomycin 100 μM
  % methemoglobin formed, Troleandomycin: 2.785 ± 0.628%
CYP 3A4; 3A4 Baculosomes, 8-aminoquinoline 100 μM, no inhibitor
  % methemoglobin formed, inhibitor None: 18.185 ± 2.809%
CYP 3A4; Baculosomes, mean ± S.D. of four
  % methemoglobin formed, CYP 3A4: 15.280 ± 1.077%
CYP 3A4; FIG. 4, Table 2
  CYP responsible for metabolism: primarily metabolized by CYP 3A4
CYP 3A4; FIG. 5
  methemoglobin toxicity generated by CYP 3A4, comparison among the three 8-aminoquinolines: almost similar methemoglobin toxicity
CPY 2B6
  % methemoglobin formed, CPY 2B6: 2.855 ± 0.419%
CYP 2E1
  % methemoglobin formed, CYP 2E1: 3.801 ± 1.996%
CYP 2A6
  % methemoglobin formed, CYP 2A6: 2.135 ± 0.530%
CYP 2C9
  % methemoglobin formed, CYP 2C9: 3.690 ± 1.660%
[2]
  R value, linear correlation between % methemoglobin formation and CYP3A4 Content of HLM preparation: > 0.9
  correlation of methemoglobin toxicity with CYP 2D6 or CYP2E1 contents of HLM preparations: did not correlate
